Laboratory results taken from patent US20160243168A1, “ADOPTIVE CELL TRANSFER METHODS” (Cantex Pharmaceuticals, Inc., priority 2015, published 2016).
Read-outs that look alike come from different tables or passages of the source.

Tests used:
[1] = system: anticoagulant activity; assay: USP anticoagulant assay; type: biochemical; settings: seven serial 1.2 kg batches
[2] = system: Xa; assay: anti-Xa activity assay (plasma treated with Russell viper venom); type: biochemical; settings: seven serial 1.2 kg batches
From the text: Another measure of ODSH's anticoagulant activity is its anti-Xa activity which can be determined in an assay carried out using plasma treated with Russell viper venom.

[3] = system: Xa; settings: Rao et al. 2010; cited from earlier work
[4] = target: IIa (Homo sapiens, UniProt P00734+P01008); assay: anti-IIa activity assay; type: biochemical; settings: seven serial 1.2 kg batches
[5] = system: patients with newly diagnosed acute myeloid leukemia (AML); assay: single arm open-label clinical study, induction chemotherapy plus ODSH; type: in vivo, human
Protocol: A single arm open-label clinical study was conducted at multiple trial sites (University of Utah, Georgia Regents University, and Medical University of South Carolina) in patients with newly diagnosed acute myeloid leukemia (AML), seeking to confirm that ODSH could accelerate platelet and white blood cell (WBC) recovery in patients receiving induction chemotherapy with a regimen known to have myelosuppressive side effects.
All patients received the following standard (“7+3”) induction regimen, • Idarubicin (12 mg/m^2/day) by short intravenous infusion on Days 1, 2, and 3; and • Cytarabine (100 mg/m^2) as a continuous intravenous infusion over 24 hours (Days 1 through 7).
All patients also received ODSH as an intravenous bolus immediately after the idarubicin dose on Day 1, at a dose of 4 mg/kg, followed by a continuous intravenous infusion at a dose of 0.25 mg/kg/hr for a total of 7 days (Days 1 through 7).
Twelve patients were enrolled. The median age was 56 (range 22-74). Based on cytogenetic, molecular, or antecedent hematologic disorder, 9 of 12 patients fell into the intermediate or poor risk categories. […] Complete remission at the end of the induction cycle was assessed using International Working Group (IWG) criteria (see, e.g., Cheson et al., J. Clin. Oncol. 21:4642 (2003)). […]

[6] = system: bone marrow cells; assay: serial bone marrow biopsies in the AML trial; type: in vivo, human
From the text: Bone marrow biopsies were obtained in the AML trial described in Example 1.
FIGS. 2A-2C are photomicrographs of biopsies from one of the patients.

[7] = target: T1, binding of CXCL12 (SDF-1) to CXCR4 (Homo sapiens, UniProt P48061); assay: in vitro inhibition assay of CXCL12 binding to CXCR4 (plate ELISA); settings: recombinant human CXCL12 coated plate, recombinant CXCR4, absorbance 450 nm
T1 construct: purchased R&D Systems (CXCL12); Abnova (CXCR4)
Protocol: Polyvinyl 96-well high bind microplates (Corning Life Sciences, Corning, N.Y.) were coated with 0.5 μg/well of recombinant human CXCL12 (R&D Systems, Minneapolis, Minn.). Plates were incubated overnight at 4° C. and washed three times with PBS-0.05% Tween-20 (PBST). Separately, a constant amount of recombinant CXCR4 (Abnova, Taipei, Taiwan, 100 μL containing 0.8 μg/mL in PBST-0.1% BSA) was incubated with an equal volume of serially diluted ODSH (0.001-1,000 μg/mL in PBST-BSA) overnight at 4° C. The following day, 50 μL of CXCR4-ODSH mix was transferred to each respective CXCL12-coated well and incubated at 37° C. for 2 h. Wells were then washed four times with PBST. To detect bound CXCR4, 50 μL of a mouse anti-human CXCR4 antibody (R&D Systems, Minneapolis, Minn.) (1 μg/mL, in PBST) was added to each well, the mixture was incubated for 1 h at room temperature, and the wells were washed again four times with PBST. Horse-radish peroxidase-conjugated secondary antibody (R&D Systems, Minneapolis, Minn.) (50 μL per well) was added, wells were incubated for 1 h at room temperature, and then washed once with PBST. […] Absorbance at 450 nm was read using an automated microplate reader. IC50 values were determined from the plot of absorbance values vs. concentrations of ODSH.

T1 sequence (P48061 22-89 limits assumed): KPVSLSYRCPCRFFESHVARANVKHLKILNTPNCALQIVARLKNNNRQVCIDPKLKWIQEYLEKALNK

Substance	USP anticoagulant activity [1]	anti-Xa activity [2]	anti-Xa activity [3]	anti-IIa activity [4]	myelosuppressive side effects of the idarubicin+cytarabine regimen ([5]; AML patients)	Complete response with first induction cycle ([5]; current study, n = 12, morphologic complete remission by IWG criteria)	bone marrow biopsy appearance ([6]; Day 14 of the induction cycle, one patient)	bone marrow biopsy appearance ([6]; Day 28, one patient)	IC50 for inhibition of binding of CXCL12 (SDF-1) to CXCR4 [7]
unfractionated heparin [reference compound]	165-190 U/mg	165-190 U/mg	165-190 U/mg	165-190 U/mg					
2-O, 3-O desulfated heparin [ODSH]	7±0.3 U/mg	1.9±0.1 U/mg		1.2±0.1 U/mg	significantly attenuated	92%	unexpected and significant depletion of normal bone marrow cells	no evidence of leukemia and restoration of normal bone marrow appearance and function	0.010 µg/mL
